Measured values reported in US20110183925A1, “ANTI-INFLAMMATORY PEPTIDE” (NISSHIN PHARMA INC., priority 2008, published 2011).
Where no end group is shown, it is not given here. [ ]: non-standard residue; d: D form. pGlu = O=C1CC[C@@H](C(=O)O)N1

Columns and labels:
Recombinant Human TACE = molecular target: T1, Recombinant Human TACE (Homo sapiens, UniProt P78536); experiment: Measurement of TACE-inhibiting activity (fluorogenic substrate, HPLC quantification); format: biochemical; settings: 1 mg/mL peptide sample, 10 μL in reaction; 37° C., 20 minutes; Control (No Peptide) = 100%; lower = more inhibition
T1 construct: purchased R&D Systems
T1 sequence (P78536 215-824): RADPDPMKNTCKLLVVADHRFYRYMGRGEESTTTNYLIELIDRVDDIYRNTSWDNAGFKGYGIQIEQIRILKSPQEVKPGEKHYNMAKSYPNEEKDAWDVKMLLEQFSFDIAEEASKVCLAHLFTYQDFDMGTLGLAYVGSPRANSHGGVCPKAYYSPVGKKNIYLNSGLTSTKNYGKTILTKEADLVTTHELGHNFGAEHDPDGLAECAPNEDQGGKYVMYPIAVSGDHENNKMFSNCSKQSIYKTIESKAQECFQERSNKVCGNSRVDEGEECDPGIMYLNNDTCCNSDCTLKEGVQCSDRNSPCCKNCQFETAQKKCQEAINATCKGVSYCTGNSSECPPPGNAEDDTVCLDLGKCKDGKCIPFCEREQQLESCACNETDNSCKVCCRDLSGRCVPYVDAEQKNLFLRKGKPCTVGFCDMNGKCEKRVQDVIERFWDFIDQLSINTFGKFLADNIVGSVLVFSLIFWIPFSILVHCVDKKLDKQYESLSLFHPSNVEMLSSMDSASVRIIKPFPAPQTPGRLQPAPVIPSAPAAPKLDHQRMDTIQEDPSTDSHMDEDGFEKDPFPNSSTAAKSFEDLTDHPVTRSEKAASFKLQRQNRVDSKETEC
Procedure: One mg/mL each of samples of pyroglutamyl peptides (pyroGlu-Leu, pyroGlu-Val, pyroGlu-Met, pyroGlu-Phe, pyroGlu-Gln-Gln, and pyroGlu-Pro-Gln) synthesized in Production Examples above were prepared and evaluated for TACE-inhibiting activity as follows.
Each sample (10 μL) was added to 10 μL of 1 μmol/L reactive substrate (TACE Substrate (Mac-PLAQAV-Dpa-RSSSR-NH2) from Biomol. International LP), 10 μL of 10 ng/10 μL enzyme solution (Recombinant Human TACE from R&D Systems), 50 μL of buffer (50 mmol/L Tris-HCl, pH 9.0, 5 μM ZnCl2, 0.01% Brij35), and 20 μL of distilled water, which was reacted at 37° C. for 20 minutes. Thereto was added 10% trifluoroacetic acid to a final concentration of 1% to stop the reaction. The substrate and the product were separated under the following conditions using reversed-phase high-performance liquid chromatography. The substrate and the product were fluorescently measured at an excitation wavelength of 320 nm and a measuring wavelength of 405 nm for quantification.
(§1) (Chromatography Condition)
(§2) Solution A: 10% acetonitrile (0.1% TFA)/Solution B: 80% acetonitrile (0.1% TFA)
(§3) Gradient: Solution B from 50% to 100%
(§4) Measuring Wavelength: 230 nm
The results are shown in Table 1 below as the ratio of the fluorescence intensity of the product to the fluorescence intensity of the product and the substrate.

Caspase-1 (ICE) = molecular target: T2, Caspase-1 (ICE) (Homo sapiens, UniProt P29466); experiment: Measurement of ICE-inhibiting activity (Ac-Trp-Glu-His-Asp-AMC substrate, HPLC quantification); format: biochemical; settings: 1 mg/mL peptide sample, 5 μL in reaction; 37° C., 20 minutes; Control (No Peptide) = 100%; lower = more inhibition
T2 construct: purchased Biomol; International LP
T2 sequence (P29466 120-297 limits assumed): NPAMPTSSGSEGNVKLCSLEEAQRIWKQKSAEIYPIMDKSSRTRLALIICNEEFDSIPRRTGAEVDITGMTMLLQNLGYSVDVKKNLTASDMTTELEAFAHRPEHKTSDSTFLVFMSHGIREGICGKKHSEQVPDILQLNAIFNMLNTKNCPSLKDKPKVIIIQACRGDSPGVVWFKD
T2 sequence (P29466 317-404 limits assumed): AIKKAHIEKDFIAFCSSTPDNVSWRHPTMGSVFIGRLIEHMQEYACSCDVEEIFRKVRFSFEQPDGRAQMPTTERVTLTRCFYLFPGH
Procedure: One mg/mL each of samples of pyroglutamyl peptides (pyroGlu-Leu, pyroGlu-Val, pyroGlu-Met, pyroGlu-Phe, pyroGlu-Gln-Gln, and pyroGlu-Pro-Gln) synthesized in Production Examples above were prepared and evaluated for ICE-inhibiting activity as follows.
Each sample (5 μL) was added to 10 μL of 2,000 μmol/L reactive substrate (Caspase-1 substrate (Ac-Trp-Glu-His-Asp-AMC) from Alexis Biochemicals), 5 μL of 10 U/μl enzyme solution (Caspase-1 from Biomol. International LP), 60 μL of buffer (50 mmol/L HEPES, pH 7.4, 100 mM NaCl, 0.1% CHAPS, 1 mM EDTA, 10% glycerol, and 10 mM DTT), and 20 μL of distilled water, which was reacted at 37° C. for 20 minutes. Thereto was added 10% trifluoroacetic acid to a final concentration of 1% to stop the reaction. The substrate and the product were separated under the following conditions using reversed-phase high-performance liquid chromatography. The substrate and the product were fluorescently measured at an excitation wavelength of 380 nm and a measuring wavelength of 460 nm for quantification.
as §1, §2, §3, §4
The results are shown in Table 2 below as the ratio of the fluorescence intensity of the product to the fluorescence intensity of the product and the substrate.

Substance	ratio of the fluorescence intensity of the product to the fluorescence intensity of the product and the substrate (TACE reaction) (Recombinant Human TACE) [%]	ratio of the fluorescence intensity of the product to the fluorescence intensity of the product and the substrate (ICE/caspase-1 reaction) (Caspase-1 (ICE)) [%]
[pGlu]-Gln-Gln	70	63
[pGlu]-Leu	61	55
[pGlu]-Met	83	75
[pGlu]-Pro-Gln	66	62
[pGlu]-Val	81	74
pyroGlu-Phe	84	72
